Source: ChEMBL document CHEMBL3044921, “Synthesis, characterization, and SAR studies of new (1H-indol-3-yl)alkyl-3-(1H-indol-3-yl)propanamide derivatives as possible antimicrobial and antitubercular agents” (2013)
In brackets after ≈: the same amount, converted by molar mass.

Assays:
[1] = system: Talaromyces marneffei; assay: Antifungal activity against Talaromyces marneffei assessed as growth inhibition at […] to […] ug/ml after 3 to 4 days by agar well diffusion method; type: functional
[2] = system: Aspergillus fumigatus; assay: Antifungal activity against Aspergillus fumigatus NCIM 902 assessed as growth inhibition at […] to […] ug/ml after 3 to 4 days by agar well diffusion method; type: functional
[3] = system: Aspergillus flavus; assay: Antifungal activity against Aspergillus flavus NCIM 524 assessed as growth inhibition at […] to […] ug/ml after 3 to 4 days by agar well diffusion method; type: functional
[4] = system: Candida albicans; assay: Antifungal activity against Candida albicans assessed as growth inhibition after 3 to 4 days by serial plate dilution method; type: functional
[5] = system: Trichophyton mentagrophytes; assay: Antifungal activity against Trichophyton mentagrophytes assessed as growth inhibition after 3 to 4 days by serial plate dilution method; type: functional
[6] = system: Talaromyces marneffei; assay: Antifungal activity against Talaromyces marneffei assessed as growth inhibition after 3 to 4 days by serial plate dilution method; type: functional
[7] = system: Aspergillus fumigatus; assay: Antifungal activity against Aspergillus fumigatus NCIM 902 assessed as growth inhibition after 3 to 4 days by serial plate dilution method; type: functional
[8] = system: Aspergillus flavus; assay: Antifungal activity against Aspergillus flavus NCIM 524 assessed as growth inhibition after 3 to 4 days by serial plate dilution method; type: functional
[9] = system: Streptococcus pyogenes; type: functional
Description: Antibacterial activity against Streptococcus pyogenes assessed as growth inhibition at 1.56 to 25 ug/ml after 3 to 4 days by agar well diffusion method

[10] = system: Klebsiella pneumoniae; type: functional
Description: Antibacterial activity against Klebsiella pneumoniae assessed as growth inhibition at 1.56 to 25 ug/ml after 3 to 4 days by agar well diffusion method

[11] = system: Pseudomonas aeruginosa; type: functional, ATCC 27853
Description: Antibacterial activity against Pseudomonas aeruginosa ATCC 27853 assessed as growth inhibition at 1.56 to 25 ug/ml after 3 to 4 days by agar well diffusion method

[12] = system: Staphylococcus aureus; type: functional, ATCC 25923
Description: Antibacterial activity against Staphylococcus aureus ATCC 25923 assessed as growth inhibition at 1.56 to 25 ug/ml after 3 to 4 days by agar well diffusion method

[13] = system: Streptococcus pyogenes; assay: Antibacterial activity against Streptococcus pyogenes assessed as growth inhibition after 16 to 18 hr by serial plate dilution method; type: functional
[14] = system: Mycolicibacterium fortuitum; assay: Antitubercular activity against Mycobacterium fortuitum ATCC 19542 assessed as growth inhibition at 0.3125 to 5 ug/mL after 7 days by resazurin reduction test; type: functional; conditions: ATCC 19542, 168 h
[15] = system: Mycolicibacterium smegmatis; assay: Antitubercular activity against Mycobacterium smegmatis ATCC 19420 assessed as growth inhibition at 0.3125 to 5 ug/mL after 7 days by resazurin reduction test; type: functional; conditions: ATCC 19420, 168 h
[16] = system: Mycobacterium tuberculosis; assay: Antitubercular activity against Mycobacterium tuberculosis H37Rv ATCC 27294 assessed as growth inhibition at 0.3125 to 5 ug/mL after 7 days by resazurin reduction test; type: functional; conditions: H37Rv ATCC 27294, 168 h
[17] = system: Mycolicibacterium smegmatis; assay: Antitubercular activity against Mycobacterium smegmatis ATCC 19420 assessed as growth inhibition at 1 to 100 ug/mL after 7 days by resazurin reduction test; type: functional; conditions: ATCC 19420, 168 h
[18] = system: Mycolicibacterium fortuitum; assay: Antitubercular activity against Mycobacterium fortuitum ATCC 19542 assessed as growth inhibition at 1 to 100 ug/mL after 7 days by resazurin reduction test; type: functional; conditions: ATCC 19542, 168 h
[19] = system: Mycobacterium tuberculosis; assay: Antitubercular activity against Mycobacterium tuberculosis H37Rv ATCC 27294 assessed as growth inhibition at 1 to 100 ug/mL after 7 days by resazurin reduction test; type: functional; conditions: for MIC: Mycobacterium tuberculosis, H37Rv ATCC 27294, 168 h
[20] = system: Candida albicans; assay: Antifungal activity against Candida albicans assessed as growth inhibition at […] to […] ug/ml after 3 to 4 days by agar well diffusion method; type: functional
[21] = system: Trichophyton mentagrophytes; assay: Antifungal activity against Trichophyton mentagrophytes assessed as growth inhibition at […] to […] ug/ml after 3 to 4 days by agar well diffusion method; type: functional
[22] = system: Klebsiella pneumoniae; assay: Antibacterial activity against Klebsiella pneumoniae assessed as growth inhibition after 16 to 18 hr by serial plate dilution method; type: functional
[23] = system: Pseudomonas aeruginosa; assay: Antibacterial activity against Pseudomonas aeruginosa ATCC 27853 assessed as growth inhibition after 16 to 18 hr by serial plate dilution method; type: functional
[24] = system: Escherichia coli; assay: Antibacterial activity against Escherichia coli […] assessed as growth inhibition after 16 to 18 hr by serial plate dilution method; type: functional
[25] = system: Staphylococcus aureus; assay: Antibacterial activity against Staphylococcus aureus ATCC 25923 assessed as growth inhibition after 16 to 18 hr by serial plate dilution method; type: functional
[26] = system: Escherichia coli; type: functional, ATCC 24922
Description: Antibacterial activity against Escherichia coli ATCC 24922 assessed as growth inhibition at 1.56 to 25 ug/ml after 3 to 4 days by agar well diffusion method

Compound: Cn1cc(CCC(=O)NCc2c[nH]c3ccc(Cl)cc23)c2cc(Cl)ccc21
- diameter of the inhibition zone (DIZ) [1]: 16 mm
- diameter of the inhibition zone (DIZ) [2]: 16 mm
- diameter of the inhibition zone (DIZ) [3]: 16 mm
- MIC [4]: 6.25 µg/mL (≈ 15.6 µM)
- MIC [5]: 6.25 µg/mL (≈ 15.6 µM)
- MIC [6]: 6.25 µg/mL (≈ 15.6 µM)
- MIC [7]: 6.25 µg/mL (≈ 15.6 µM)
- MIC [8]: 6.25 µg/mL (≈ 15.6 µM)
- diameter of the inhibition zone (DIZ) [9]: 16 mm
- diameter of the inhibition zone (DIZ) [10]: 16 mm
- diameter of the inhibition zone (DIZ) [11]: <10 mm
- diameter of the inhibition zone (DIZ) [12]: 16 mm
- MIC [13]: 6.25 µg/mL (≈ 15.6 µM)
- MIC [14]: 10 µg/mL (≈ 25 µM)
- MIC [15]: 10 µg/mL (≈ 25 µM)
- MIC [16]: 0.625 µg/mL (≈ 1.56 µM)
- MIC [17]: 10 µg/mL (≈ 25 µM)
- MIC [18]: 10 µg/mL (≈ 25 µM)
- growth inhibition (GI) [19]: 95%
- MIC [19]: 1 µg/mL (≈ 2.5 µM)
- diameter of the inhibition zone (DIZ) [20]: 16 mm
- diameter of the inhibition zone (DIZ) [21]: 16 mm
- MIC [22]: 6.25 µg/mL (≈ 15.6 µM)
- MIC [23]: 25 µg/mL (≈ 62.5 µM)
- MIC [24]: 6.25 µg/mL (≈ 15.6 µM)
- MIC [25]: 6.25 µg/mL (≈ 15.6 µM)
- diameter of the inhibition zone (DIZ) [26]: 16 mm

Compound: CO[C@H]1/C=C/O[C@@]2(C)Oc3c(C)c(O)c4c(O)c(c(/C=N/N5CCN(C)CC5)c(O)c4c3C2=O)NC(=O)/C(C)=C\C=C\[C@H](C)[C@H](O)[C@@H](C)[C@@H](O)[C@@H](C)[C@H](OC(C)=O)[C@@H]1C [RIFAMPIN]
- MIC [14]: 1.5 µg/mL (≈ 1.82 µM)
- MIC [15]: 1.5 µg/mL (≈ 1.82 µM)
- MIC [16]: 0.5 µg/mL (≈ 0.608 µM)
- MIC [17]: 1.5 µg/mL (≈ 1.82 µM)
- MIC [18]: 1.5 µg/mL (≈ 1.82 µM)
- growth inhibition (GI) [19]: 95%
- MIC [19]: 0.5 µg/mL (≈ 0.608 µM)

Compound: Cn1cc(CCCNC(=O)CCc2cn(C)c3ccc(Cl)cc23)c2cc(Cl)ccc21
- diameter of the inhibition zone (DIZ) [1]: <10 mm
- diameter of the inhibition zone (DIZ) [2]: 11 mm
- diameter of the inhibition zone (DIZ) [3]: 11 mm
- MIC [4]: 25 µg/mL (≈ 56.5 µM)
- MIC [5]: 12.5 µg/mL (≈ 28.3 µM)
- MIC [6]: 25 µg/mL (≈ 56.5 µM)
- MIC [7]: 12.5 µg/mL (≈ 28.3 µM)
- MIC [8]: 12.5 µg/mL (≈ 28.3 µM)
- diameter of the inhibition zone (DIZ) [9]: <10 mm
- diameter of the inhibition zone (DIZ) [10]: <10 mm
- diameter of the inhibition zone (DIZ) [11]: <10 mm
- diameter of the inhibition zone (DIZ) [12]: 11 mm
- MIC [13]: 25 µg/mL (≈ 56.5 µM)
- MIC [15]: 10 µg/mL (≈ 22.6 µM)
- MIC [16]: 5 µg/mL (≈ 11.3 µM)
- MIC [17]: 10 µg/mL (≈ 22.6 µM)
- MIC [18]: > 100 µg/mL
- growth inhibition (GI) [19]: <90%
- MIC [19]: 10 µg/mL (≈ 22.6 µM)
- diameter of the inhibition zone (DIZ) [20]: <10 mm
- diameter of the inhibition zone (DIZ) [21]: 11 mm
- MIC [22]: 25 µg/mL (≈ 56.5 µM)
- MIC [23]: 25 µg/mL (≈ 56.5 µM)
- MIC [24]: 25 µg/mL (≈ 56.5 µM)
- MIC [25]: 12.5 µg/mL (≈ 28.3 µM)
- diameter of the inhibition zone (DIZ) [26]: <10 mm

Compound: Cn1cc(CCC(=O)NCCCc2c[nH]c3ccc(Cl)cc23)c2cc(Cl)ccc21
- diameter of the inhibition zone (DIZ) [1]: <10 mm
- diameter of the inhibition zone (DIZ) [2]: <10 mm
- diameter of the inhibition zone (DIZ) [3]: <10 mm
- MIC [4]: 6.25 µg/mL (≈ 14.6 µM)
- MIC [5]: 12.5 µg/mL (≈ 29.2 µM)
- MIC [6]: 25 µg/mL (≈ 58.4 µM)
- MIC [7]: 25 µg/mL (≈ 58.4 µM)
- MIC [8]: 25 µg/mL (≈ 58.4 µM)
- diameter of the inhibition zone (DIZ) [9]: 11 mm
- diameter of the inhibition zone (DIZ) [10]: 16 mm
- diameter of the inhibition zone (DIZ) [11]: 16 mm
- diameter of the inhibition zone (DIZ) [12]: 16 mm
- MIC [13]: 12.5 µg/mL (≈ 29.2 µM)
- MIC [15]: 2.5 µg/mL (≈ 5.84 µM)
- MIC [16]: 2.5 µg/mL (≈ 5.84 µM)
- MIC [17]: 10 µg/mL (≈ 23.3 µM)
- MIC [18]: > 100 µg/mL
- growth inhibition (GI) [19]: <90%
- MIC [19]: 10 µg/mL (≈ 23.3 µM)
- diameter of the inhibition zone (DIZ) [20]: 16 mm
- diameter of the inhibition zone (DIZ) [21]: 11 mm
- MIC [22]: 6.25 µg/mL (≈ 14.6 µM)
- MIC [23]: 6.25 µg/mL (≈ 14.6 µM)
- MIC [24]: 6.25 µg/mL (≈ 14.6 µM)
- MIC [25]: 6.25 µg/mL (≈ 14.6 µM)
- diameter of the inhibition zone (DIZ) [26]: 16 mm

Compound: NNC(=O)c1ccncc1 [ISONIAZID]
- MIC [14]: 12.5 µg/mL (≈ 91.1 µM)
- MIC [15]: 50 µg/mL (≈ 365 µM)
- MIC [16]: 0.7 µg/mL (≈ 5.1 µM)
- MIC [17]: 50 µg/mL (≈ 365 µM)
- MIC [18]: 12.5 µg/mL (≈ 91.1 µM)
- growth inhibition (GI) [19]: 95%
- MIC [19]: 0.7 µg/mL (≈ 5.1 µM)
